11 compounds from patent US20250243218A1, “NOVEL CARBAMATE COMPOUND AND USE THEREOF” (CHENGDU SHIBEIKANG BIOMEDICAL TECHNOLOGY CO., LTD., priority 2022, published 2025) can be followed below.

Structures can show the parent of a compound that is named as a salt.

One series has as its target T1, hERG potassium channel (Homo sapiens, UniProt Q12809).
T1 construct: expressed in transfected cells
As to the kind of experiment: cell-based. The following applies: IC50 (μM), inhibition of cardiac hERG potassium channel, manual patch-clamp, stably overexpressed hERG channel. The text has this: Test Example 2: Effect of Compounds on Current in Stably Overexpressed hERG Channel

Series [1] in a line: Pharmacokinetic study in SD rats, 2-Oxo-clopidogrel in plasma by LC/MS/MS. Format: in vivo. The settings on record: SD, rat, in vivo. The source says:
After being administered via single gavage at the same molar amount, the pharmacokinetic characteristics of each compound were investigated, and the main pharmacokinetic parameters were compared.
Each test compound was accurately weighed separately into a clean drug container, dissolved with appropriate amount of Solutol, shaken by vortex, added with purified water, ultrasonicated, and shaken by vortex until the compound was completely dissolved. All the formulations were freshly prepared on the day of administration.
Thirty healthy adult SD rats were administered via gavage.
Grouping and Fasting: SD rats were randomly grouped, with 6 rats per group, and administered with the corresponding compounds via gavage according to Table 3.
Sample Collection and Processing: 0.2 ml of blood was collected at different time points of before (0 h) and 5 min, 15 min, 30 min, 1 h, 2 h, 4 h, 8 h, and 24 h after the administration. After the anticoagulation with EDTA-K2 was completed, the blood was centrifuged at 4° C. for 5 min, and then the plasma was separated and stored at −80° C. for later measurement.
Measurement: The blood drug concentration of 2-Oxo-clopidogrel in all PK plasma samples was measured by LC/MS/MS method, and the pharmacokinetic parameters of individual compounds were calculated by using software WinNonlin 7.2.

The test system of series [2] is ADP-induced platelet aggregation in rats. As to the kind of experiment: Antiplatelet aggregation effect: ADP-induced platelet aggregation in PRP of rats after iv administration. The series is classed as in vivo. The following applies: single iv at the same molar dose, blood 3 h after administration, ADP final 20 μM. The source says:
1. Test objective: Evaluation and comparison of the antiplatelet aggregation treatment effect of each compound after administration at the same molar amount
70 rats were randomly and evenly grouped into 7 groups, i.e., solvent control group, comparative example 1 (2-Oxo-clopidogrel) group, comparative example 2 (Vicagrel) group, compound 1 group, compound 2 group, compound 7 group and compound 8 group.
Rats were anesthetized by intraperitoneal injection of 1.5% sodium pentobarbital.
The anesthetized animals were transferred to an operating platform.
The rats were injected with anesthetic, and fixed on the operating platform in a supine position after the whole body of the rat became soft. After routine disinfection, the abdomen of the rat was incised along the abdominal midline using surgical scissors to open the abdominal cavity. The adipose tissue around the blood vessels was gently separated with a small forceps, and the excess adipose tissue covering the blood vessels was then wiped and removed with the cotton ball to make the blood vessels clearly visible (the abdominal aorta is located anterior to the vertebral column, and the abdominal vein appears thicker and darker in color than the abdominal aorta). The blood vessel was first fixed to prevent it from moving as much as possible. The left thumb and index finger fixed the adipose tissue and other organs on both sides of the blood vessel, while the ring finger pressed on the blood vessel at the upper end of the needle insertion point to lower the blood pressure, which can prevent blood spurting. The puncture needle was held with the right hand, with the bevel of the needle tip facing downward. The needle was inserted at an angle of about 30 degrees and advanced towards the heart to a suitable depth of about 5 mm. Once the blood had started to enter the needle via its tip, the other end of the blood collection needle was inserted into the vacuum tube. After the insertion of needle, the needle tip could be clamped with a hemostatic clip to prevent it from puncturing the blood vessel if the rat struggled due to insufficient anesthesia.
Three hours after the administration, the rats were anesthetized with sodium pentobarbital. Then blood was collected from the abdominal aorta, added with 3.8% sodium citrate (1:9) as an anticoagulant, mixed evenly and centrifuged at 200 g for 10 min. The supernatant was harvested to obtain the platelet-rich plasma (PRP), and the residual plasma was then centrifuged at 1600 g for 15 min to obtain the resulting supernatant as platelet-poor plasma (PPP).
Platelet aggregation rate was measured using a platelet aggregometer (model: Agg RAM, Helena, USA). The PPPs corresponding to the PRPs to be tested in each channel were first used to correct the light transmission, and the PPPs were removed after the correction. A cuvette added with 225 μl of PRP to be tested was then placed in each channel, and added with a stirrer, then ADP (with a final concentration of 20 μM). The platelet aggregometer immediately began to measure the platelet aggregation rate.

Series [3] is described as follows: Influencing factor test (high temperature, high humidity, light). The series is classed as physicochemical. The settings on record: high temperature (60° C.), two days. Here is the method:
Test Methods: The samples of the compound 2 and comparative example 2 (Vicagrel) were weighed and placed in weighing bottles, respectively, and the weighing bottles were placed under the conditions of high temperature (60° C.), high humidity (RH 80%), and light (5000 Lux), respectively.

The nature of a further series: Solubility study. The following applies: 25° C. to 30° C. Format: physicochemical. Here is the method:
Samples of the example compound 2 and comparative example 2 (Vicagrel) were accurately weighed. Under the condition of 25° C. to 30° C., 1 ml of physiological saline and 1 ml of a buffer (pH 1.2) were taken, and added with 10 mg of each compound, respectively. The compound 2 of the present disclosure had excellent solubility, which can satisfy the demand for the formulation into an injection with an effective concentration in clinical, while the solubility of the comparative example 2 was extremely low and it cannot satisfy the demand for injection, and the addition of additional solubilizer may pose potential safety risks.

T1 sequence (Q12809 whole entry): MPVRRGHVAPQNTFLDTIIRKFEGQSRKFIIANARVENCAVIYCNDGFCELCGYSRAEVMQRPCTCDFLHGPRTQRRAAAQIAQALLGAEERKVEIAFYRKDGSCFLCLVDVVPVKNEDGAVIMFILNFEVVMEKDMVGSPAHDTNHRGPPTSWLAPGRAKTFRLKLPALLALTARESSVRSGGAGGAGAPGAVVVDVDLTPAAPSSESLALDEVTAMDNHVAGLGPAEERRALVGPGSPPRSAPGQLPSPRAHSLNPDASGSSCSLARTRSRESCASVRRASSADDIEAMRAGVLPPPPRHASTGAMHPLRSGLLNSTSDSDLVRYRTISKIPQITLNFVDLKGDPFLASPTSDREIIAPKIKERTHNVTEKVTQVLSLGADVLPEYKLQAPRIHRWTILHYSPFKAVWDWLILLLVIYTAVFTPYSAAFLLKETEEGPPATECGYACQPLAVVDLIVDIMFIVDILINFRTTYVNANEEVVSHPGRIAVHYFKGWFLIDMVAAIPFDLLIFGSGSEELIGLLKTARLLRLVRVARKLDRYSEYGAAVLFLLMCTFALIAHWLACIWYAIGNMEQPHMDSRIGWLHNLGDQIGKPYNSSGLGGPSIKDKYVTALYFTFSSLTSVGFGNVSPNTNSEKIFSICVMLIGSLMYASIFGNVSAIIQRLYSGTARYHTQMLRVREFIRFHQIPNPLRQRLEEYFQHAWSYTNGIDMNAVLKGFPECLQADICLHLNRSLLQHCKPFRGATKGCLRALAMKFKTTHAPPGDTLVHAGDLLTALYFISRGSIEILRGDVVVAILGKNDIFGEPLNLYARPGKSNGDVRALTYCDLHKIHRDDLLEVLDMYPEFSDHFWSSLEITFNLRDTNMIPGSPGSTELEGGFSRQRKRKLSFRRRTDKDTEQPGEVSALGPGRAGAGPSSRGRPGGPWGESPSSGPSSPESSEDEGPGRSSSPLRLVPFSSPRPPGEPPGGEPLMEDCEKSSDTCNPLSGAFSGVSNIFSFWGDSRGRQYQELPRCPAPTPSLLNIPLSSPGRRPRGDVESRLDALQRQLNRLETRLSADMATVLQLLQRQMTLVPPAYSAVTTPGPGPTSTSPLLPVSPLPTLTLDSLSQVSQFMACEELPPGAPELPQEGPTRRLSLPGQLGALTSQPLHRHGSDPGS

Take `COC(=O)[C@H](c1ccccc1Cl)N1CCc2sc(OC(=O)N3CCC(C4CCN(C)C4)CC3)cc2C1` (stereo partly drawn) [Compound 9, 5-((S)-1-(2-chlorophenyl)-2-methoxy-2-oxyethyl)-4,5,6,7-tetrahydrothieno[3,2-c]pyridin-2-yl-4-(1-methylpyrrolidine-3-yl) piperidine-1-carboxylate]: the IC50 (as a rule, the concentration needed to halve the response being measured) at hERG potassium channel stood at 27.2 µM.

At hERG potassium channel, `COC(=O)[C@H](c1ccccc1Cl)N1CCc2sc(OC(=O)N3CCN(C4CC4)CC3)cc2C1` [Compound 4, (S)-5-(1-(2-chlorophenyl)-2-methoxy-2-oxyethyl)-4,5,6,7-tetrahydrothieno[3,2-c]pyridin-2-yl 4-cyclopropylpiperazine-1-carboxylate] came in with an IC50 of 16.4 µM.

On to `COC(=O)[C@H](c1ccccc1Cl)N1CCc2sc(OC(=O)N3CCC(N4CCN(C)CC4)CC3)cc2C1` [Compound 10, (S)-5-(1-(2-chlorophenyl)-2-methoxy-2-oxyethyl)-4,5,6,7-tetrahydrothieno[3,2-c]pyridin-2-yl-4-(4-methylpiperazine-1-yl) piperidine-1-carboxylate], for which the IC50 on hERG potassium channel was found to be 25.9 µM. This IC50 is about 1.6-fold higher than that of the compound before.

`COC(=O)[C@H](c1ccccc1Cl)N1CCC2SC(=O)C=C2C1` (stereo partly shown) [Comparative Example 1, 2-Oxo-clopidogrel, reference compound]: in series [1], the “AUC0-last” value was 60.15 ± 14.22 ng·h/mL; the Cmax (as a rule, the maximum level reached in the sampled fluid or tissue) is 38.48 ± 13.51 ng/mL; the “T1/2” value came to 70.8 ± 12.6 min; the Tmax – broadly, the time from dosing to the highest level – amounted to 37.8 ± 9 min. Moreover, the “Platelet aggregation rate (%)” value in series [2] (solvent control 76.06 ± 3.29) is reported as 31.32 ± 6.07 ^ %. Moreover, the “Platelet aggregation rate (%)” value in series [2] (solvent control 76.06 ± 3.29, listed as comparative example 1) was 31.32±6.07%.

On to `COC(=O)[C@H](c1ccccc1Cl)N1CCc2sc(OC(=O)N3CCN(C4CCCCC4)CC3)cc2C1` [Compound 6, (S)-5-(1-(2-chlorophenyl)-2-methoxy-2-oxyethyl)-4,5,6,7-tetrahydrothieno[3,2-c]pyridin-2-yl 4-cyclohexylpiperazine-1-carboxylate], for which the IC50 at hERG potassium channel was determined as 14.9 µM.

`COC(=O)[C@H](c1ccccc1Cl)N1CCc2sc(OC(=O)N3CCN(C4CCCC4)CC3)cc2C1` [Compound 5, (S)-5-(1-(2-chlorophenyl)-2-methoxy-2-oxyethyl)-4,5,6,7-tetrahydrothieno[3,2-c]pyridin-2-yl 4-cyclopentylpiperazine-1-carboxylate]: 15.8 µM corresponded to half-maximal inhibition at hERG potassium channel (IC50). The IC50 values of the last two compounds are within 1.5-fold of each other.

`CCCN1CCN(C(=O)Oc2cc3c(s2)CCN([C@H](C(=O)OC)c2ccccc2Cl)C3)CC1` [Compound 3, (S)-5-(1-(2-chlorophenyl)-2-methoxy-2-oxyethyl)-4,5,6,7-t etrahydrothieno[3,2-c]pyridin-2-yl-4-propylpiperazine-1-carboxylate]: the midpoint of inhibition against hERG potassium channel, the IC50, lay at 15.2 µM.

Consider `COC(=O)[C@H](c1ccccc1Cl)N1CCc2sc(OC(C)=O)cc2C1` [Comparative Example 2, Vicagrel, reference compound], for which the “change in appearance and characteristics” value in series [3] is “from a white solid to a yellowish-brown oil”. The “Platelet aggregation rate (%)” value in series [2] (solvent control 76.06 ± 3.29) is listed as 39.32 ± 12.38 ^ %; in series [2] (solvent control 76.06 ± 3.29, listed as comparative example 2) it was 39.32±12.38%. This compound also had a Solubility, pH 1.2 buffer in “Solubility study” (10 mg compound added to 1 ml buffer (pH 1.2)) of less than 0.5 mg/mL. The “Solubility, Physiological saline(1 ml)” value in the series “Solubility study” (10 mg compound added to 1 ml physiological saline) is recorded as “insoluble”.

The compound `COC(=O)[C@H](c1ccccc1Cl)N1CCc2sc(OC(=O)N3CCC(N4CCCCC4)CC3)cc2C1` [Compound 7, (S)-5-(1-(2-chlorophenyl)-2-methoxy-2-oxyethyl)-4,5,6,7-tetrahydrothieno[3,2-c]pyridin-2-yl [1,4′-bipiperidine]-1′-carboxylate] came in with an IC50 against hERG potassium channel of 25.4 µM. In addition, the “Platelet aggregation rate (%)” value in series [2] (solvent control 76.06 ± 3.29) worked out at 27.59 ± 6.99 %; in series [2] (solvent control 76.06 ± 3.29, listed as compound 7) it was 27.59±6.99%.

Regarding `COC(=O)[C@H](c1ccccc1Cl)N1CCc2sc(OC(=O)N3CCC(N4CCCCC4)CC3)cc2C1` [Compound 8, (S)-5-(1-(2-chlorophenyl)-2-methoxy-2-oxyethyl)-4,5,6,7-t etrahydrothieno[3,2-c]pyridin-2-yl [1,4′-bipiperidine]-1′-carboxylate hydrochloride], the IC50 at hERG potassium channel was determined as 27.3 µM. Further, in series [2] (solvent control 76.06 ± 3.29, hydrochloride), the “Platelet aggregation rate (%)” value was 27.13 ± 6.50 %.

`COC(=O)[C@H](c1ccccc1Cl)N1CCc2sc(OC(=O)N3CCN(C)CC3)cc2C1` [Compound 1, (S)-5-(1-(2-chlorophenyl)-2-methoxy-2-oxyethyl)-4,5,6,7-tetrahydrothieno[3,2-c]pyridin-2-yl 4-methylpiperazine-1-carboxylate]: the IC50 at hERG potassium channel was determined as 20.5 µM. The “Platelet aggregation rate (%)” value was determined as 24.08 ± 6.00 % in series [2] (solvent control 76.06 ± 3.29) and 24.08±6.00% in series [2] (solvent control 76.06 ± 3.29, listed as compound 1).
